Assay results reported in PMC6941357, “An in vitro toolbox to accelerate anti-malarial drug discovery and development” (Malaria Journal, 2020).
Converted amounts (≈) assume the structure as drawn. “And” between values parts separate entries of the source, which are not always exact repeats. Equal values may be shown once.

Experiments:
[1] = Solubility in biorelevant media; details: for solubility at 1 h: 37 °C, fassgf or other biorelevant; for solubility at 1 h / solubility: thermodynamic from solid
Method in brief: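 LC–MS quantification of supernatants, after two centrifugations, in triplicate against calibration standards. Media: FaSSGF sampled at 1 h; FaSSIF-V2, FeSSIF-V2 and pH 7.4 PBS sampled at 5–6 h; all at 37 °C on an orbital mixer at 600 rpm.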

[2] = molecular target: T1, Albumax medium (lipid rich bovine serum albumin) (Bos taurus, UniProt P02769); experiment: Binding in Albumax medium via ultracentrifugation; assay type: in vitro ADME; details: bovine, isolated protein, pH 7.4
T1 construct: purchased Gibco, Thermo Fisher Scientific
Method in brief: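 Unbound fraction (fu) taken as protein-free supernate concentration over total concentration after ultracentrifuging compound-spiked Albumax at 37 °C (5% or 10% CO2, or air). Analysis used 1:1 mixing with the opposite blank matrix against a common pH 7.4 calibration; degradation judged by start versus end Ctotal.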

[3] = Solubility limited absorbable dose (SLAD) calculation with predicted human jejunal Peff; details: for solubility: FaSSIF; for An (absorption number): Peff × tres/R, minimum 1; for SLAD: Ssi × V (500 mL) × Mp; for Permeability classification: based on ref 80 and control compounds; for Predicted human Peff: from Caco-2 Papp via calibration plot
Text: Predicted Peff values were obtained from a calibration plot of literature Peff values vs measured Caco-2 Papp using either buffer or plasma as the transport medium (see Results section).

in vitro = details: human, pH 7.4, HLM CLint
Method in brief: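 Intrinsic clearance (µL/min/mg protein) came from the first-order substrate-depletion rate in human liver microsomes, using only the initial log-linear phase where kinetics deviated. Samples were quenched at 2, 5, 15, 30 and 60 min and quantified by LC–MS. Unbound CLint was obtained by dividing by microsomal fu.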

CYP2D6 = CYP2D6 (Homo sapiens, UniProt P10635); experiment: Cytochrome P450 inhibition in human liver microsomes
Method in brief: (§1)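 HLM + isoform-selective substrate; stop with cold MeCN (diazepam IS); metabolite quantified by LC–MS against calibrants made in quenched microsomal matrix. Readout = % inhibition of metabolite formation relative to no-inhibitor activity.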

CYP1A2 = molecular target: T2, CYP1A2 (Homo sapiens, UniProt P05177); experiment: as above
T2 sequence (P05177 1-516): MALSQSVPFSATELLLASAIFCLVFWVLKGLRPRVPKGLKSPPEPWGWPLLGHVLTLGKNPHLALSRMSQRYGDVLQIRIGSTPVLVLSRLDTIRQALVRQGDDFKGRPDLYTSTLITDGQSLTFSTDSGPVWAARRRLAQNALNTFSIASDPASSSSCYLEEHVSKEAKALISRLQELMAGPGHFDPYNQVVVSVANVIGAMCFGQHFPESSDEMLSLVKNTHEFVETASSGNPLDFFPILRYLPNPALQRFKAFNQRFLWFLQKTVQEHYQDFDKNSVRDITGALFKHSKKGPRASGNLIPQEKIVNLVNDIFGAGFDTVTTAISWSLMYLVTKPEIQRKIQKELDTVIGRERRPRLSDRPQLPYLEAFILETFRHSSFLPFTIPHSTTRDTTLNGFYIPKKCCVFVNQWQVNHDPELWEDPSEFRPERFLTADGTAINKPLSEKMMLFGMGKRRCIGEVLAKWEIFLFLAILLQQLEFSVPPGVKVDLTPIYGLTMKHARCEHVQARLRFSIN
Method in brief: as §1

CYP3A4 = CYP3A4 (Homo sapiens, UniProt P08684); experiment: as above; details: for IC50: highest concentration tested 20 µM; for inhibition at 20 µM: human; for inhibition at 20 µM / CYP3A4 (midaz) % inhibition at max conc / CYP3A4 (test) % inhibition at max conc: microsomes
Method in brief: as §1

CYP2C9 = CYP2C9 (Homo sapiens, UniProt P11712); experiment: as above
Method in brief: as §1

CYP2C19 = CYP2C19 (Homo sapiens, UniProt P33261); experiment: as above; details: for inhibition at 20 µM: human, pH 7.4; for inhibition at 20 µM / CYP2C19 % inhibition at max conc: microsomes
Method in brief: as §1

[4] = phosphate buffered saline pH 7.4, 37 °C, pH 7.4, aqueous buffer
[5] = CYP3A4 (midaz) IC50, human liver microsomes, CYP3A4 (midaz)
[6] = CYP3A4 (test) IC50, human liver microsomes, CYP3A4 (test)
[7] = pH 7.4, CYP3A4 (midaz) % inhibition at max conc
[8] = pH 7.4, CYP3A4 (test) % inhibition at max conc
[9] = liver microsomes, human liver microsomes, average of n = 2 replicates, < 7 means < 15% loss over 60 min

Sequence of CYP2D6 (P10635 whole entry, canonical isoform): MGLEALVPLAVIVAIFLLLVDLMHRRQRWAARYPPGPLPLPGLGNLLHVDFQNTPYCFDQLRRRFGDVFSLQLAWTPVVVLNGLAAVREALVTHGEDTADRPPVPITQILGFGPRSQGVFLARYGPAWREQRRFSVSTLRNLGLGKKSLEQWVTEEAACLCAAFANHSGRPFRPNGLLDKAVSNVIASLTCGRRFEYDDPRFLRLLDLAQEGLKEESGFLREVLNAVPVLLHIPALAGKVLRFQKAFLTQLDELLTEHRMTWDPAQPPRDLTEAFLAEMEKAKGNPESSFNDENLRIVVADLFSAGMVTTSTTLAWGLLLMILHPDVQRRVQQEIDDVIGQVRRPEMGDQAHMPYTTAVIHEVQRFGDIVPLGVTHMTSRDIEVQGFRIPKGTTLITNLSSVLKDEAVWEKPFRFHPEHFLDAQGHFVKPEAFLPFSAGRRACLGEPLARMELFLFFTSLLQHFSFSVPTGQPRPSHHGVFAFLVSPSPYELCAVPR
T1 sequence (P02769 25-607): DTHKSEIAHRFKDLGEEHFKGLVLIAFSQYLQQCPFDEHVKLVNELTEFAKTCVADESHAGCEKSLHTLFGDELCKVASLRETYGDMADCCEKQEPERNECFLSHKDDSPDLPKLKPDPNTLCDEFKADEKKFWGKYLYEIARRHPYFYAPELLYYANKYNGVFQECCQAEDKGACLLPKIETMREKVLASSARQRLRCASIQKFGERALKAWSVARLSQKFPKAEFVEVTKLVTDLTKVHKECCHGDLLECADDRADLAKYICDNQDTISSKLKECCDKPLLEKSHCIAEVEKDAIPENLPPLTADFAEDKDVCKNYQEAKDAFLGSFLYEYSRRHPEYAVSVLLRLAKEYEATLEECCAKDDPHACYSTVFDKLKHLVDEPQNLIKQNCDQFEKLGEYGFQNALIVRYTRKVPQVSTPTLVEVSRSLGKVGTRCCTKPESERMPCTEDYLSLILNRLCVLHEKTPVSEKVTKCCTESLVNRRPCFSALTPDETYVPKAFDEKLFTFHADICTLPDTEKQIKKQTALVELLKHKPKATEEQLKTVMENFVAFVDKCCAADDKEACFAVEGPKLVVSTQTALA
Sequence of CYP2C9 (P11712 whole entry): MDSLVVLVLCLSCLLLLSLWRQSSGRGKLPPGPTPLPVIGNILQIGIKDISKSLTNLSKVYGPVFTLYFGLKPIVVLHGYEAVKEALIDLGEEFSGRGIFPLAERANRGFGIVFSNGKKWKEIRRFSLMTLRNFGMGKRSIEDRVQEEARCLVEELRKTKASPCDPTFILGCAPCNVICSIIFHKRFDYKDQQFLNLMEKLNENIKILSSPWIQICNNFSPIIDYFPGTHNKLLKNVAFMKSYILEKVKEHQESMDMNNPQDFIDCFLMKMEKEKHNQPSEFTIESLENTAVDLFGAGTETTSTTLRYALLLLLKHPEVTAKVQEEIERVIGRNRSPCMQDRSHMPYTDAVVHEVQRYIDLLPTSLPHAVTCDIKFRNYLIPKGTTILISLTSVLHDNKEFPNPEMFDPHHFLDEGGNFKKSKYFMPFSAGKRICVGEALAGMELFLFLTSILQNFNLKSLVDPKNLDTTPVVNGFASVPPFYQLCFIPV
Sequence of CYP2C19 (P33261 whole entry): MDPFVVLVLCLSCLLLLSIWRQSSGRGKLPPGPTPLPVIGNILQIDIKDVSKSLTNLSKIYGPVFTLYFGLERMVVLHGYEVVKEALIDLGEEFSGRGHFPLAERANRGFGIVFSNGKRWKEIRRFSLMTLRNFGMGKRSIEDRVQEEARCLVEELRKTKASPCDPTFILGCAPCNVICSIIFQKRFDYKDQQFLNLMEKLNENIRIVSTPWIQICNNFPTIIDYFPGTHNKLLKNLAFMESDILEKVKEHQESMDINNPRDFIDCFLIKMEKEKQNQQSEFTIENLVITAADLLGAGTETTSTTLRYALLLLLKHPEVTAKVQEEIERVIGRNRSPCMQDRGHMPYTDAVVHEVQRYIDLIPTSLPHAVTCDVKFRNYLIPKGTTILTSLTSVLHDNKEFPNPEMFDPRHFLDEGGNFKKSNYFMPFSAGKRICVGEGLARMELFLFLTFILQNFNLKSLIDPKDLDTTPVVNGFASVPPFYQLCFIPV
Sequence of CYP3A4 (P08684 whole entry): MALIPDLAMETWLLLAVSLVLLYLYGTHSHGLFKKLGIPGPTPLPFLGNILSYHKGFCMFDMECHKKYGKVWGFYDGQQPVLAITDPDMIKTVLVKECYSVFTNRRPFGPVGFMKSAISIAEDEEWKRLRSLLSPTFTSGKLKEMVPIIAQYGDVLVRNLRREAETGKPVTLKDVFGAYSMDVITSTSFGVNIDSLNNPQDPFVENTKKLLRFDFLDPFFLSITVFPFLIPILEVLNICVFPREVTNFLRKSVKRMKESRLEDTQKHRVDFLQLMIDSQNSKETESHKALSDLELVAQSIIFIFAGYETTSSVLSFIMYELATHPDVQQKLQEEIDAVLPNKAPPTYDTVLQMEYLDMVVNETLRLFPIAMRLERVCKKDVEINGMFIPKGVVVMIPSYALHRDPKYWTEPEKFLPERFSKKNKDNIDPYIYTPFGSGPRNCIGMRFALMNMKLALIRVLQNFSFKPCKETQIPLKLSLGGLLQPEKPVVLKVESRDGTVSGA

| SMILES | solubility at 1 h ([1]; FaSSGF) | solubility ([1]; FaSSIF-V2, 37 °C, fassif) | solubility ([1]; FeSSIF-V2, 37 °C, fessif) | solubility [1, 4] | fraction unbound at […], 500 ng/mL [2] | solubility [3] [µg/mL] | An (absorption number) [3] | SLAD [3] [mg] | Permeability classification [3] | Predicted human Peff [3] | IC50 (CYP2D6) [µM] | IC50 (CYP1A2) [µM] | IC50 (CYP3A4; [5]) [µM] | IC50 (CYP3A4; [6]) [µM] | inhibition at 20 µM (CYP3A4; [7]) [%] | inhibition at 20 µM (CYP3A4; [8]) [%] | IC50 (CYP2C9) [µM] | IC50 (CYP2C19) [µM] | microsomal CLint at 1 µM (in vitro; [9]) [µL/min/mg] | Ki (CYP2D6) [µM] | further results |
| --- | --- | --- | --- | --- | --- | --- | --- | --- | --- | --- | --- | --- | --- | --- | --- | --- | --- | --- | --- | --- | --- |
| CC(C)(N)CNC(=O)C[C@H]1CC[C@]2(CC1)OO[C@]1(O2)C2CC3CC(C2)CC1C3 [OZ277, Arterolane] | > 2000 µg/mL and > 5000 µM | > 2000 µg/mL and > 5100 µM | > 2000 µg/mL and > 5000 µM | 198 µg/mL and 504 µM | 0.29 ± 0.021 | > 2000 | 3.2 | > 3240 | High (> 85% absorption (high)) | 2.7 10^−4 cm/s | > 20 | > 20 | > 20 | > 20 | 26 | 46 | > 20 | > 20 | – | – | FaSSGF solubility ([1]; FaSSGF): > 2000 µg/mL; FaSSIF solubility ([1]; FaSSIF): > 2000 µg/mL; FeSSIF solubility ([1]; FeSSIF): > 2000 µg/mL; microsomal CLint at 1 µM (in vitro; microsomes): < 7 µL/min/mg; CYP1A2 % inhibition at max conc (CYP1A2; human liver microsomes, at max conc, nmi = no measurable inhibition): nmi |
| [H]/N=C(\N/C(=N/[H])Nc1ccc(Cl)cc1)NC(C)C [Proguanil] | > 2000 µg/mL and > 7880 µM | > 2000 µg/mL and > 7880 µM | > 2000 µg/mL and > 7880 µM | > 2000 µg/mL and > 7880 µM | 0.8 ± 0.021 | > 2000 | 1.0 | > 1000 | Intermediate (50–84% absorption (intermediate)) | 0.71 10^−4 cm/s | 3.5 | > 20 | – | – | – | 24 | > 20 | > 20 | < 7 | 2.2 | solubility ([1]; FaSSGF, FaSSIF-V2, FeSSIF-V2 and PBS pH 7.4, 37 °C, pH 7.4, aqueous buffer): > 2000 µg/mL; CYP1A2 % inhibition at max conc (CYP1A2; microsomes): nmi; CYP3A4 (midaz) % inhibition at max conc (CYP3A4): nmi; CYP2C9 % inhibition at max conc (CYP2C9; microsomes): nmi; inhibition at 20 µM (CYP2C19): 27% |
| COc1ccc2nc3cc(Cl)ccc3c(Nc3cc(CN4CCCC4)c(O)c(CN4CCCC4)c3)c2n1 [Pyronaridine] | > 2000 µg/mL and > 3800 µM | > 2000 µg/mL and > 3860 µM | > 2000 µg/mL and > 3800 µM | 357 µg/mL and 689 µM | 0.69 ± 0.023 | > 2000 | 1.6 | > 1610 | High (> 85% absorption (high)) | 1.4 10^−4 cm/s | 1.2 | > 20 | > 20 | > 20 | 28 | – | > 20 | > 20 | 8.6 | 0.75 | inhibition at 20 µM (CYP1A2; human, microsomes, pH 7.4): 30%; CYP3A4 (test) % inhibition at max conc (CYP3A4): nmi; CYP2C9 % inhibition at max conc (CYP2C9; microsomes): nmi; CYP2C19 % inhibition at max conc (CYP2C19): nmi |
| N#Cc1cc(NC(=O)[C@H]2c3ccccc3C(=O)N(CC(F)(F)F)[C@@H]2c2cccnc2)ccc1F [SJ733] | > 2000 µg/mL and > 4270 µM | 101 µg/mL and 216 µM | 119 µg/mL and 254 µM | 115 µg/mL and 246 µM | 0.4 ± 0.04 | 101 (≈ 0.216 mM) | 2.2 | 109 | High (> 85% absorption (high)) | 1.8 10^−4 cm/s | 16 | > 20 | > 20 | > 20 | 33 | 37 | > 20 | > 20 | 142 | 9.6 | CYP1A2 % inhibition at max conc (CYP1A2; microsomes): nmi; inhibition at 20 µM (CYP2C9; human, microsomes, pH 7.4): 33%; inhibition at 20 µM (CYP2C19): 38% |
| COc1ncnc(NS(=O)(=O)c2ccc(N)cc2)c1OC [Sulfadoxine] | 324 µg/mL and 1040 µM | 858 µg/mL and 2770 µM | 474 µg/mL and 1530 µM | > 1900 µg/mL and > 6400 µM | 0.5 ± 0.03 | 858 (≈ 2.76 mM) | 2.2 | 959 | High (> 85% absorption (high)) | 1.9 10^−4 cm/s | > 20 | > 20 | – | – | – | – | > 20 | > 20 | < 7 | – | CYP2D6 % inhibition at max conc (CYP2D6; microsomes): nmi; CYP1A2 % inhibition at max conc (CYP1A2; microsomes): nmi; CYP3A4 (midaz) % inhibition at max conc (CYP3A4): nmi; CYP3A4 (test) % inhibition at max conc (CYP3A4): nmi; CYP2C9 % inhibition at max conc (CYP2C9; microsomes): nmi; CYP2C19 % inhibition at max conc (CYP2C19): nmi |
